Read-outs that look alike come from different tables or passages of the source.
What was measured:
[1] = Pharmacokinetic study in beagles; type: in vivo; settings: beagle, dog, plasma, male beagles
Method: Experimental Example 4: Pharmacokinetic Study of Compounds in Beagles
Compound 174 was prepared into a solution with a mixed solvent formulated from 5% dimethyl sulfoxide, 20% (30% solutol) and 75% normal saline; the solution of this compound was administered to male beagles by gavage at a dose of 1.0 mg/kg; and the time points for blood collection were: 15 min, 30 min, 1 b, 2 h, 4 h, 6 b, 8 h, 10 h and 24 h. The solution of the compound was administered to male beagles by intravenous bolus at a dose of 1.0 mg/kg, and the time points for blood collection were as follows: 5 min, 15 min, 30 min, 1 h, 2 h, 4 h, 6 h, 8 h, 10 h, and 24 h.
Compound 177 and Compound 195 were prepared into solutions with a mixed solvent formulated from 5% dimethyl sulfoxide, 20% (30% solutol) and 75% normal saline, respectively; the solutions of these compounds were administered to male beagles by gavage at a dose of 1.0 mg/kg; and the time points for blood collection were: 15 min, 30 min, 1 h, 2 h, 4 h, 6 h, 8 h, 10 h and 24 h. The solution of the compound was administered to male beagles by intravenous bolus at a dose of 1.0 mg/kg, and the time points for blood collection were as follows: 5 min, 15 min, 30 min, 1 h, 2 h, 4 h, 6 h, 8 h, 10 h, and 24 h.
Approximately 400 μL of blood was collected through the medial cephalic vein of the forelimb and placed in an anticoagulant tube containing EDTA-K2. Blood samples were centrifuged at 12,000 rpm for 10 min at 4° C. to obtain plasma samples, and plasma was prepared within 30 min after blood collection. The plasma was stored in a −80° C. freezer before testing.

[2] = target: T1, hERG potassium ion channel (Homo sapiens, UniProt Q12809); assay: Inhibition of hERG potassium ion channels, manual patch-clamp in HEK-293 cells; type: cell-based; settings: HEK-293 cells stably expressing hERG, whole-cell manual patch-clamp, room temperature
T1 construct: expressed in transfected cells
Method: Experimental Example 5: Test for Inhibition of hERG Potassium Ion Channels by Compound
Experimental Objective: To study the inhibitory effect of the compound on hERG potassium ion channels by a manual patch-clamp technique. […]
• 2.1 Blank control: DMSO stock. • 2.2 Positive control: 10 mM stock formulated from a appropriate amount of Cisapride and dimethyl sulfoxide (DMSO). The stock was aliquoted and stored at −20° C. • 2.3 Compound: An appropriate amount of compound was weighed; the volume of DMSO required was calculated according to the formula: DMSO volume=actual amount×purity (content)/(molecular weight×theoretical concentration), and the corresponding volume of DMSO was pipetted; then, the weighed compound was dissolved with the pipetted DMSO, and the mass of DMSO was measured at the same time; and finally, the actual stock concentration was calculated according to the final amount of DMSO used. […]

T1 sequence (Q12809 whole entry): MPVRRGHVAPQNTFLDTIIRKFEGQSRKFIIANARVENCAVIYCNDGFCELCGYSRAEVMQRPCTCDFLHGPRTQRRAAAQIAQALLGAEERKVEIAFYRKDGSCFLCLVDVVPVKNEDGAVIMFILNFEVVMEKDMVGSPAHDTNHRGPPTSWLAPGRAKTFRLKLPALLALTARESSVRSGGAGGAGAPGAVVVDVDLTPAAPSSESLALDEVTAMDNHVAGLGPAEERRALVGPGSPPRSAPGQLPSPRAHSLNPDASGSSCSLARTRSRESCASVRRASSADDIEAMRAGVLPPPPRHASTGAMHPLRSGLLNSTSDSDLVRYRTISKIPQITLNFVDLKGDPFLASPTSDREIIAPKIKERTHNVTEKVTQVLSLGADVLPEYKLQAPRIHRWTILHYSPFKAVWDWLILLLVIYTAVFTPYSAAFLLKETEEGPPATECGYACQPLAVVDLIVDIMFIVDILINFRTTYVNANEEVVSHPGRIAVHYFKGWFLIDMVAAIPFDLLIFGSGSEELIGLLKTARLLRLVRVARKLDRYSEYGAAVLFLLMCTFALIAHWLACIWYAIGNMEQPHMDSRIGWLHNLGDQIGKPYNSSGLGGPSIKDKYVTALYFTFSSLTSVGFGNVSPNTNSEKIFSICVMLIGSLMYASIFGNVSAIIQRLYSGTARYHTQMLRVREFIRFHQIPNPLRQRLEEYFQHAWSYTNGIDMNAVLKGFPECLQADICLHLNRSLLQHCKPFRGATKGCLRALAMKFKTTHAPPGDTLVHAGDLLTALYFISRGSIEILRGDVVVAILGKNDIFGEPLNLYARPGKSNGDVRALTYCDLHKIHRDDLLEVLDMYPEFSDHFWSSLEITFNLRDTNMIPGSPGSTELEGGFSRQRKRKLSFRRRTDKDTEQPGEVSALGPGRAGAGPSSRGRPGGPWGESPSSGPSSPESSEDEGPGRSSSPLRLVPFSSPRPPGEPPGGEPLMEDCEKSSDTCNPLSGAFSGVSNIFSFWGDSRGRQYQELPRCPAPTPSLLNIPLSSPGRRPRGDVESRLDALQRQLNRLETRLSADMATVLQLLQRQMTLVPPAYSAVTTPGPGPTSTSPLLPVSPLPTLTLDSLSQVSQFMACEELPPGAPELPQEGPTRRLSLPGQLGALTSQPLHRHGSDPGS

Q: For `CC#Cc1ccc(-c2nnc(N[C@@H]3CCCN(C)C3)cc2C)c(O)c1` [Compound 174, (R)-2-(4-methyl-6-((1-methylpiperidin-3-yl)amino)pyridazin-3-yl)-5-(prop-1-yn-1-yl)phenol], which AUC(0-t) ([1]; po, gavage 1.0 mg/kg, read-out: AUClast po (area under the drug-time curve for 0-24 h)) is on record?
A: 1660 ng·h/mL

Q: What about the Cmax ([1]; po, gavage 1.0 mg/kg, read-out: Cmax po (peak concentration)) of the same molecule?
A: 105 ng/mL

Q: What about the Tmax ([1]; po, gavage 1.0 mg/kg, read-out: Tmax po (peak time of plasma concentration)) of the same molecule?
A: 4 h

Q: And the half-life ([1]; po, gavage 1.0 mg/kg, read-out: tz1/2 po (terminal elimination half-life) (converted))?
A: 14.7 h

Q: And the AUC(0-t) ([1]; intravenous bolus 1.0 mg/kg, read-out: AUClast iv (area under the drug-time curve for 0-24 h))?
A: 1980 ng·h/mL

Q: What about the clearance ([1]; intravenous bolus 1.0 mg/kg, read-out: Cl—obs iv (clearance rate) (converted)) of the same molecule?
A: 5.53 mL/min/kg

Q: What about the Vd ([1]; intravenous bolus 1.0 mg/kg, read-out: Vss iv (volume of distribution)) of the same molecule?
A: 7.39 L/kg

Q: And the half-life ([1]; intravenous bolus 1.0 mg/kg, read-out: tz1/2 iv (terminal elimination half-life) (converted))?
A: 15.8 h

Q: And the bioavailability ([1]; iv 1.0 mg/kg / po 1.0 mg/kg, read-out: F % (absolute bioavailability))?
A: 83.8%

Q: For `C#Cc1ccc(-c2nnc(N[C@@H]3CCCN(C)C3)cc2C)c(O)c1` [Compound 54, (R)-5-ethynyl-2-(4-methyl-6-((1-methylpiperidin-3-yl)amino)pyridazin-3-yl)phenol], which IC50 [2] is on record?
A: > 10 µM
